# Laboratory results taken from patent publication US8034574B2, “Screening method for prokinetic agent” (Astellas Pharma Inc., priority 2006, dated 2011).
# “Also recorded” adds a separate entry of the source.
# How the values were obtained:
# RIN14B cells = experiment: Serotonin secretion from RIN14B cells (immunoassay); assay type: cell-based, rat; conditions: 20 minutes culture
# Protocol: After RIN14B cells in culture in a Petri dish were detached using a PBS containing 1 mM EDTA, they were sown to a 96-well plate and cultured for 2 days. The medium used was RPMI1640 (Invitrogen Japan K.K.) supplemented with 10% fetal bovine serum (ICN), 100 U/ml penicillin, and 100 μg/ml streptomycin. After the cells were once washed with Hanks' Balanced Salt Solutions (HBSS, Invitrogen) supplemented with 0.1% BSA and 10 μM fluoxetine (TOCRIS), each TRPA1 activator, previously diluted/prepared with the above-described HBSS, was added, and the RIN14B cells were cultured at 37° C. in the presence of 5% CO2 for 20 minutes. After the cultivation, the cell supernatant was recovered, and stored under freezing. The serotonin content in the supernatant was measured using a commercially available serotonin immunoassay kit (Beckman).
# rat EC cells = experiment: Serotonin secretion from rat small intestine EC cells; assay type: cell-based; conditions: 45 minutes culture
# Protocol: A Wistar rat (male, 8-week-old) was decapitated and exsanguinated, after which it was dissected and laparotomized with scissors, and the small intestine was extirpated. The inside of the lumen of the extirpated small intestine was washed with physiological saline, and about 20 mL of Buffer A (70 mM NaCl, 5 mM KCl, 20 mM NaHCO3, 0.5 mM NaH2PO4, 50 mM HEPES (pH 7.2), 11 mM glucose, 3 mM EDTA, 0.5% BSA, 0.05 mM dithiothreitol, 1 mg/mL N-acetyl-L-cysteine) was injected, after which both ends were closed, and the small intestine was allowed to stand in 37° C. incubated HBSS for 10 minutes. Thereafter, the Buffer A in the lumen of the small intestine was discarded, about 20 mL of Buffer A was injected again, and the small intestine was allowed to stand in 37° C. incubated HBSS for 10 minutes. Again, the Buffer A in the lumen of the small intestine was discarded, fresh Buffer A was injected, and the small intestine was allowed to stand in 37° C. incubated HBSS for 20 minutes, after which the lumen content was recovered. […]
# Serotonin secretion activity in EC cells prepared by the method described in Example 9-(3) was measured by a method modified from the method of Example 14 above. […]
# The serotonin content in the supernatant was measured using a commercially available serotonin immunoassay kit (Beckman). […]
# mouse constipation model = experiment: Loperamide-induced mouse constipation model (bead discharge time); assay type: in vivo; conditions: loperamide 0.3 mg/kg s.c., 0.01 to 1 mg/kg oral
# Protocol: Because loperamide, a μ opioid receptor agonist, induces convulsive contraction in the gut and causes a delay of gut transportation, this experimental system is thought to be an experimental model of constipation type irritable bowel syndrome.
# Mice (ddY, male, 5-week-old, SLC) were fasted from afternoon of the day before the experiment; on the day of the experiment, the mice were acclimated to the measurement cage for 1 hour or more, after which loperamide, 0.3 mg/kg, was administered subcutaneously. […] The mouse was returned to the measurement cage, and time from awakening to discharge of the glass beads was measured.
smiles,measurement,setting,value
C=CCN=C=S [allyl isothiocyanate],serotonin secretion from RIN14B cells,RIN14B cells,serotonin secretion was promoted; also recorded: concentration-dependently promoted the release of serotonin
same,serotonin secretion from rat EC cells,rat EC cells,significant serotonin secretion promoting activity was observed; also recorded: promoted the release of serotonin from the EC cells
same,bead discharge time,mouse constipation model,dose-dependently ameliorated the delay of bead discharge time by loperamide; also recorded: concentration-dependently shortened bead discharge time compared to the vehicle control
